# Measured values published in patent US9920295B2, “Bioreactor for isolation of rare cells and methods of use” (The Trustees of the University of Pennsylvania, priority 2012, dated 2018).
# How the values were obtained:
# BM CD34+-derived cells = assay: Micropipette aspiration of CD34+-derived cells; type: cell-based, human
# Method: Cells from BMCD34^+, cultured in SCF and Tpo between 3 and 8 days, were treated with 20 μM blebbistatin for 30 min to 1 h, followed by micropipette analysis. Capillary tubes of 1.0-mm inner diameter (World Precision Instruments) were pulled into micropipettes using a Flaming-Brown Micropipette Puller (Sutter Instrument) and cut further using a deFonbrune-type microforge (Vibratome). The average micropipette diameter was around 3 μm. Micropipettes were attached to a dual-stage water manometer with reservoirs of adjustable height. Suction was applied by a syringe, and the corresponding pressure was measured by pressure transducer (Validyne), calibrated by a mercury U-tube manometer. Pressures for different experiments ranged from 0.5 to 20 kPa. In some cases, cells were labeled with a very low dose (10 nM) of fluorescent BODIPY-Taxol (Invitrogen) for 1 h at 37° C. to visualize the initial stage of microtubule polymerization during micropipette aspiration.
# [1] = tested on: CD34+-derived cells (HSC, MPP, CPP); assay: HSC/P numbers on FN-coated gels of different elasticity; type: cell-based, human; conditions: drug-treated cells
# Method: 15-18 mm glass coverslips were treated in order with ethanol, RCA solution (1:1:3 for 15N NH4OH:30% H2O2:dH2O), methylene chloride and 0.1% allyltrichlorosilane solution. To control gel's stiffness, n,n′ methylene-bis-acrylamide and the acrylamide solution was mixed at the ratio of 0.07%:3% for soft gels (0.3 kPa), or the ratio of 0.3%:8% for stiff gels (34 kPa), final concentrations in PBS. ˜25 μl of the mixed solution was polymerized on a coverslip with 10% ammonium persulfate and n,n,n′,n′-tetramethylethylenediamine. During polymerization, gels were covered with another coverslip to obtain a uniform gel surface with the final thickness of ˜100 μm. Different concentrations of FN were then cross-linked with polymerized gels using sulfo-SANFAH (Pierce, Rockford, Ill.) by UV-crosslinking Thickness of gels and relative FN concentrations were verified by confocal microscopy. It is assumed that most FN from the solution was attached to gels (>70%). FN-coated gels were then treated with UV in PBS for at least 1 hr before use in cell culture.
# [2] = tested on: SCID-repopulating cells in NSG mice; assay: Engraftment in NSG mice and limiting dilution analysis; conditions: mouse, in vivo
# Method: BM-derived CD34^+ cells were cultured in SCF and Tpo (100 ng/ml each) for 4 days and treated under control conditions or Bleb (20 μM) for 3 days. The cells were injected intra-tibially into sub-lethally irradiated (250 rads) 6-10-week-old NSG mice within 24 hr after irradiation. Engraftment was assessed by analysis of blood or bone marrow using anti-mouse and anti-human CD47 antibodies using flow cytometry. The mice were sacrificed after sixteen weeks post-transplantation. For secondary engraftment, 50% of the bone marrow from femurs and tibias from each mouse was transplanted into one sub-lethally irradiated NSG mouse. 16 weeks after transplantation, blood and bone marrow were harvested from the mice and analyzed by flow cytometry. All animal experiments were done in accordance with institutional guidelines approved by the ethical committee from the University of Pennsylvania. The human repopulation HSC frequency was quantified by extreme limiting dilution analysis (ELDA) software (Hu and Smyth, 2009)
structure (smiles),measurement,setting,value
"Cc1ccc2c(c1)C(=O)C1(O)CCN(c3ccccc3)C1=N2 (racemic) [blebbistatin, (±)-blebbistatin]",median fragmentation threshold (effective membrane tension),BM CD34+-derived cells; 20 μM,~1 mN/m
same,"compliance, median slope of aspiration length vs tension","BM CD34+-derived cells; 20 μM, unfragmented cells",3.79±0.84 (mN/m)^−1
same,increase in compliance,BM CD34+-derived cells; after 30 min,approximately four
same,treated cells that fragment,BM CD34+-derived cells; after 30 min,40%
same,"CPP number soft vs stiff, mean",[1],0.9±0.1
same,"MPP number soft vs stiff, mean",[1],1.0±0.1
same,increase of HSC-to-MPP ratio with increasing FN density,[1],> 2 fold
same,"ratio of HSC numbers soft vs stiff, mean",[1],1.1±0.2
same,increase in HSC frequency in terms of total cell number injected,[2],4 fold
